Measured values: US8192962B2, “Processes for detecting toxic substances” (Daikin Industries, Ltd., priority 2001, dated 2012)

Tested on: Metabolism protein genes
Experiment: DNA chip mRNA expression in yeast, metabolism protein genes (Table 7)
Format: cell-based, Saccharomyces cerevisiae S288C
Experimental: Yeast (Saccharomyces cerevisiae S288C (α SUC2mal mel gap2 CUP1)) were incubated at 25° C. on YPD medium (yeast extract 1%, polypepton 2%, glucose 2%). One of toxic chemical substances was added to the cells at logarithmic growth phase, and the cells were further incubated for two hours. Cells were cultured without any chemical substance in the same condition, and were used as control. Concentrations of the chemical substances were defined to inhibit the growth of the yeast but not lead to death.
After completion of the incubation, the culture was centrifuged to collect the cells. To the cells, sodium acetate buffer (50 mM sodium acetate, 10 mM EDTA, 1% SDS) was added, and the mixture was shaken at 65° C. for five minutes, followed by returning to room temperature, and obtaining the supernatant, of which the procedures were repeated two times. To the supernatant, ½ amount of a solution of phenol/chloroform was added, and the mixture was centrifuged to give a supernatant, which was added with an equal amount of chloroform, and the mixture was centrifuged to give a supernatant. To the supernatant, an equal amount of isopropanol containing 0.3 M sodium acetate was added, and the mixture was allowed to stand at room temperature for 30 minutes, after which the mixture was centrifuged to give a sediment of the whole RNAs. Seventy % ethanol was added to the sediment, and the mixture was again centrifuged to give a sediment, which was then dried and dissolved in water. mRNA was isolated from the whole RNAs as followings. In view of the fact that a poly A chain is attached to the 3′ terminus of mRNA, a polynucleotide having a poly T structure which was immobilized on the surface of latex beads was used to trap the mRNA, and then the mRNA was washed and eluted with spine column (Oligotex-dT30<Super>mRNA Purification Kit, Takara). Reverse transcription of the mRNA was conducted with a reverse transcriptase (Super Script II Reverse Transcriptase; catalogue No. 18064-014, GibcoBRL) using fluorescence-labeled nucleotides to give cDNAs that were introduced with Cy3-dUTP or Cy5-dUTP during the reverse transcription.
The labeled cDNAs were dissolved in TE buffer (10mM Tris-HCl/1 mM EDTA, pH8.0), and the solution was dropped on the DNA chip containing the whole genes of yeast (DNA Chip Research Inc. Japan) so that the cDNAs were hybridized on the DNA chip at 65° C. for over 12 hours. The fluoresces intensity of the DNA chip was read with a scanner, and the ratio relative to the fluorescence intensity resulting from the absence of chemical substance was estimated as the following, which is shown in Tables 1 to 9: […]

[Cl][Cd][Cl] [(2), CdCl2]
The level of expressed mRNA in the presence of chemical substance/The level of expressed mRNA in the absence of chemical substance (yeast gene YJR155W): 3.7 | The level of expressed mRNA in the presence of chemical substance/The level of expressed mRNA in the absence of chemical substance (yeast gene YKL035W): 0.9 | level of expressed mRNA in the presence/in the absence of chemical substance (yeast gene YKL060C): 0.8 | The level of expressed mRNA in the presence of chemical substance/The level of expressed mRNA in the absence of chemical substance (yeast gene YKL091C): 1.3 | The level of expressed mRNA in the presence of chemical substance/The level of expressed mRNA in the absence of chemical substance (yeast gene YKL104C): 1.0 | level of expressed mRNA in the presence/in the absence of chemical substance (yeast gene YKL148C): 0.8 | The level of expressed mRNA in the presence of chemical substance/The level of expressed mRNA in the absence of chemical substance (yeast gene YKL152C): 1.3 | level of expressed mRNA in the presence/in the absence of chemical substance (yeast gene YKL157W): 1.0 | The level of expressed mRNA in the presence of chemical substance/The level of expressed mRNA in the absence of chemical substance (yeast gene YKL213C): 0.8 | The level of expressed mRNA in the presence of chemical substance/The level of expressed mRNA in the absence of chemical substance (yeast gene YKL215C): 1.1 | level of expressed mRNA in the presence/in the absence of chemical substance (yeast gene YKR034W): 1.5 | The level of expressed mRNA in the presence of chemical substance/The level of expressed mRNA in the absence of chemical substance (yeast gene YLL058W): 3.8 | level of expressed mRNA in the presence/in the absence of chemical substance (yeast gene YLR006C): 0.7 | level of expressed mRNA in the presence/in the absence of chemical substance (yeast gene YLR044C): 0.6 | level of expressed mRNA in the presence/in the absence of chemical substance (yeast gene YLR056W): 0.6 | level of expressed mRNA in the presence/in the absence of chemical substance (yeast gene YLR058C): 0.8 | level of expressed mRNA in the presence/in the absence of chemical substance (yeast gene YLR081W): 0.8 | level of expressed mRNA in the presence/in the absence of chemical substance (yeast gene YLR089C): 1.2 | The level of expressed mRNA in the presence of chemical substance/The level of expressed mRNA in the absence of chemical substance (yeast gene YLR180W): 1.4 | The level of expressed mRNA in the presence of chemical substance/The level of expressed mRNA in the absence of chemical substance (yeast gene YLR273C): 1.0 | level of expressed mRNA in the presence/in the absence of chemical substance (yeast gene YLR284C): 1.0 | The level of expressed mRNA in the presence of chemical substance/The level of expressed mRNA in the absence of chemical substance (yeast gene YLR299W): 1.9 | The level of expressed mRNA in the presence of chemical substance/The level of expressed mRNA in the absence of chemical substance (yeast gene YLR300W): 0.8 | level of expressed mRNA in the presence/in the absence of chemical substance (yeast gene YLR304C): 0.6 | The level of expressed mRNA in the presence of chemical substance/The level of expressed mRNA in the absence of chemical substance (yeast gene YLR307W): 0.4 | The level of expressed mRNA in the presence of chemical substance/The level of expressed mRNA in the absence of chemical substance (yeast gene YLR348C): 4.5 | level of expressed mRNA in the presence/in the absence of chemical substance (yeast gene YLR354C): 2.5 | level of expressed mRNA in the presence/in the absence of chemical substance (yeast gene YLR372W): 0.3 | level of expressed mRNA in the presence/in the absence of chemical substance (yeast gene YML022W): 0.6 | The level of expressed mRNA in the presence of chemical substance/The level of expressed mRNA in the absence of chemical substance (yeast gene YML054C): 1.8 | The level of expressed mRNA in the presence of chemical substance/The level of expressed mRNA in the absence of chemical substance (yeast gene YML070W): 1.7 | The level of expressed mRNA in the presence of chemical substance/The level of expressed mRNA in the absence of chemical substance (yeast gene YML100W): 2.7 | The level of expressed mRNA in the presence of chemical substance/The level of expressed mRNA in the absence of chemical substance (yeast gene YMR008C): 0.9 | level of expressed mRNA in the presence/in the absence of chemical substance (yeast gene YMR011W): 1.0 | level of expressed mRNA in the presence/in the absence of chemical substance (yeast gene YMR015C): 0.7 | The level of expressed mRNA in the presence of chemical substance/The level of expressed mRNA in the absence of chemical substance (yeast gene YMR020W): 1.0 | level of expressed mRNA in the presence/in the absence of chemical substance (yeast gene YMR083W): 1.7 | The level of expressed mRNA in the presence of chemical substance/The level of expressed mRNA in the absence of chemical substance (yeast gene YMR105C): 3.0 | The level of expressed mRNA in the presence of chemical substance/The level of expressed mRNA in the absence of chemical substance (yeast gene YMR189W): 0.8 | level of expressed mRNA in the presence/in the absence of chemical substance (yeast gene YMR205C): 0.7 | level of expressed mRNA in the presence/in the absence of chemical substance (yeast gene YMR261C): 1.6 | The level of expressed mRNA in the presence of chemical substance/The level of expressed mRNA in the absence of chemical substance (yeast gene YMR271C): 1.6 | The level of expressed mRNA in the presence of chemical substance/The level of expressed mRNA in the absence of chemical substance (yeast gene YMR296C): 0.7 | level of expressed mRNA in the presence/in the absence of chemical substance (yeast gene YMR323W): 1.1 | The level of expressed mRNA in the presence of chemical substance/The level of expressed mRNA in the absence of chemical substance (yeast gene YNL012W): 1.3 | level of expressed mRNA in the presence/in the absence of chemical substance (yeast gene YNL025C): 1.4 | The level of expressed mRNA in the presence of chemical substance/The level of expressed mRNA in the absence of chemical substance (yeast gene YNL045W): 1.3 | The level of expressed mRNA in the presence of chemical substance/The level of expressed mRNA in the absence of chemical substance (yeast gene YNL104C): 1.3 | The level of expressed mRNA in the presence of chemical substance/The level of expressed mRNA in the absence of chemical substance (yeast gene YNL106C): 1.4 | The level of expressed mRNA in the presence of chemical substance/The level of expressed mRNA in the absence of chemical substance (yeast gene YNL169C): 1.4 | level of expressed mRNA in the presence/in the absence of chemical substance (yeast gene YNL192W): 1.2 | The level of expressed mRNA in the presence of chemical substance/The level of expressed mRNA in the absence of chemical substance (yeast gene YNL231C): 0.8 | The level of expressed mRNA in the presence of chemical substance/The level of expressed mRNA in the absence of chemical substance (yeast gene YNL322C): 0.9 | The level of expressed mRNA in the presence of chemical substance/The level of expressed mRNA in the absence of chemical substance (yeast gene YNL331C): 3.6 | The level of expressed mRNA in the presence of chemical substance/The level of expressed mRNA in the absence of chemical substance (yeast gene YNL332W): 1.5 | The level of expressed mRNA in the presence of chemical substance/The level of expressed mRNA in the absence of chemical substance (yeast gene YNR019W): 1.3 | The level of expressed mRNA in the presence of chemical substance/The level of expressed mRNA in the absence of chemical substance (yeast gene YNR033W): 0.8 | The level of expressed mRNA in the presence of chemical substance/The level of expressed mRNA in the absence of chemical substance (yeast gene YNR059W): 0.9 | The level of expressed mRNA in the presence of chemical substance/The level of expressed mRNA in the absence of chemical substance (yeast gene YOL058W): 0.5 | level of expressed mRNA in the presence/in the absence of chemical substance (yeast gene YOL086C): 0.5 | level of expressed mRNA in the presence/in the absence of chemical substance (yeast gene YOL108C): 1.5 | level of expressed mRNA in the presence/in the absence of chemical substance (yeast gene YOL116W): 1.0 | The level of expressed mRNA in the presence of chemical substance/The level of expressed mRNA in the absence of chemical substance (yeast gene YOL126C): 0.8 | The level of expressed mRNA in the presence of chemical substance/The level of expressed mRNA in the absence of chemical substance (yeast gene YOL153C): 1.2 | level of expressed mRNA in the presence/in the absence of chemical substance (yeast gene YOL156W): 0.7 | The level of expressed mRNA in the presence of chemical substance/The level of expressed mRNA in the absence of chemical substance (yeast gene YOL165C): 4.5 | level of expressed mRNA in the presence/in the absence of chemical substance (yeast gene YOR002W): 1.1 | level of expressed mRNA in the presence/in the absence of chemical substance (yeast gene YOR085W): 0.8 | The level of expressed mRNA in the presence of chemical substance/The level of expressed mRNA in the absence of chemical substance (yeast gene YOR099W): 1.3 | level of expressed mRNA in the presence/in the absence of chemical substance (yeast gene YOR103C): 0.8 | level of expressed mRNA in the presence/in the absence of chemical substance (yeast gene YOR108W): 0.9 | level of expressed mRNA in the presence/in the absence of chemical substance (yeast gene YOR128C): 0.7 | The level of expressed mRNA in the presence of chemical substance/The level of expressed mRNA in the absence of chemical substance (yeast gene YOR130C): 1.7 | level of expressed mRNA in the presence/in the absence of chemical substance (yeast gene YOR142W): 1.2 | level of expressed mRNA in the presence/in the absence of chemical substance (yeast gene YOR176W): 2.6 | level of expressed mRNA in the presence/in the absence of chemical substance (yeast gene YOR178C): 1.3 | level of expressed mRNA in the presence/in the absence of chemical substance (yeast gene YOR251C): 1.0 | The level of expressed mRNA in the presence of chemical substance/The level of expressed mRNA in the absence of chemical substance (yeast gene YOR336W): 1.4 | The level of expressed mRNA in the presence of chemical substance/The level of expressed mRNA in the absence of chemical substance (yeast gene YOR347C): 0.9 | level of expressed mRNA in the presence/in the absence of chemical substance (yeast gene YOR348C): 0.7 | The level of expressed mRNA in the presence of chemical substance/The level of expressed mRNA in the absence of chemical substance (yeast gene YPL017C): 2.5 | level of expressed mRNA in the presence/in the absence of chemical substance (yeast gene YPL028W): 0.9 | level of expressed mRNA in the presence/in the absence of chemical substance (yeast gene YPL057C): 1.1 | level of expressed mRNA in the presence/in the absence of chemical substance (yeast gene YPL135W): 1.2 | level of expressed mRNA in the presence/in the absence of chemical substance (yeast gene YPL148C): 0.8 | The level of expressed mRNA in the presence of chemical substance/The level of expressed mRNA in the absence of chemical substance (yeast gene YPR026W): 1.2 | level of expressed mRNA in the presence/in the absence of chemical substance (yeast gene YPR113W): 0.8 | level of expressed mRNA in the presence/in the absence of chemical substance (yeast gene YPR165W): 0.7 | The level of expressed mRNA in the presence of chemical substance/The level of expressed mRNA in the absence of chemical substance (yeast gene YPR167C): 5.8 | level of expressed mRNA in the presence/in the absence of chemical substance (yeast gene YPR183W): 1.5
